Laboratory results reported in PMC6951458 (Clinical and Translational Science, 2019).
Like-named read-outs stand apart in the source and are kept apart here. Marks after values point to notes of the source that are not given here.

Columns and labels:
phosphodiesterase 3 = assay: Phosphodiesterase 3 activity; format: biochemical; details: read-out: IC50, phosphodiesterase 3
bacteria = assay: Bacterial reverse mutation assay; format: cell-based
[1] = In vitro induction of chromosome aberrations; format: cell-based
rat = assay: In vivo micronucleus test in rat
dogs [2] = assay: Single oral dose-escalation study in dogs; format: in vivo, dog; details: at 30 mg/kg/day
4-week study in dogs = format: in vivo, dog; details: dog
dogs [3] = assay: 4-week study in dogs; format: in vivo, dog; details: dogs
[4] = First-in-human pharmacokinetics in healthy volunteers; format: in vivo; details: for Mean t1/2 / AUC(0-inf) / AUC(0-t) / Cmax / Tmax / Vd/F: healthy volunteers; for Mean t1/2 / AUC(0-inf) / AUC(0-t) / Cmax / Tmax / half-life / Vd/F: [SD]; for AUC(0-inf) / AUC(0-t) / Cmax / Tmax / half-life / Vd/F: human, plasma, po; for AUC(0-inf): Mean AUC0−inf; for AUC(0-t): Mean AUC0−t; for Cmax: Mean Cmax; for Tmax: Mean Tmax; for half-life: Mean t1/2, healthy volunteers
healthy volunteers [5] = assay: Intensive ECG monitoring in healthy volunteers; format: in vivo, human
[6] = tested on: plasma cytokines, chemokines, and growth factors; format: in vivo, human; details: IL‐1β, IL‐2, IL‐4, IL‐6, IL‐8, IFNγ, TNFα; IL‐15, IL‐17A; MCP‐1, and IP‐10
Plasma protein binding = format: in vitro ADME, human, dog
healthy volunteers [7] = details: for AEs grade 1–2 CTCAE, % / AEs grade 3 CTCAE: ↑CK, % / Gastrointestinal disorders, % / Investigations, % / ↑ALT (%) / ↑CK (%) / ↓WBC (%) / SAEs: seizure (%) / Diarrhea, %: number of subjects (%); for Diarrhea, %: grade 1–2
mouse model of CML‐BC = details: cited from earlier work
[8] = tested on: stem cells derived from patients with CML‐BC or Philadelphia chromosome–positive acute lymphoblastic leukemia; details: in combination with tyrosine kinase inhibitors; cited from earlier work
[9] = tested on: pro‐inflammatory cytokines, chemokines, and growth factors; details: in vivo; cited from earlier work
[10] = 10 mg, oral 10 mg single dose FASTED (N = 16)
[11] = 10 mg, oral 10 mg single dose FED (N = 9)
[12] = 20 mg, oral 20 mg single dose FASTED (N = 14)
[13] = 10 mg single dose FASTED (N = 16)
[14] = 20 mg single dose FASTED (N = 14)

SMILES: N#Cc1ccc(-c2cnc3ccc(-c4ccc(C(=O)N5CCOCC5)cc4)cn23)cc1 [ETC‐206]
- IC50 (phosphodiesterase 3): 2.25 µM
- mutagenicity (bacteria): did not show any mutagenicity
- mutagenicity [1]: did not show any mutagenicity
- mutagenicity (rat): did not show any mutagenicity
- cardiovascular parameters (blood pressure, heart rate, cardiac repolarization) (dogs [2]): affected cardiovascular (CV) parameters
- NOAEL at 4 weeks (4-week study in dogs; in vivo): 3 mg/kg/day
- AUC(0-t) (4-week study in dogs; plasma, 3 mg/kg/day): 7230 ng·h/mL
- Cmax (4-week study in dogs; plasma, 3 mg/kg/day): 935 ng/mL
- highest unbound mean free fraction AUC0−last at NOAEL (dogs [3]): 670 ng·h/mL
- highest unbound mean free fraction Cmax at NOAEL (dogs [3]): 11.8 ng/mL
- bile duct proliferation (dogs [3]; 4 weeks, medium and high doses): minimal to mild
- liver enzymes (ALT, alkaline phosphatase, gamma glutamyltransferase) (dogs [3]; 4 weeks, medium and high doses): increase in liver enzymes
- dose proportionality ([4]; 10 to 20 mg single doses in fasted condition): showed dose proportionality
- Mean t1/2 ([4]; oral 10 mg single dose FASTED (N = 16)): 22.95 [5.63] hour
- Mean t1/2 ([4]; oral 10 mg single dose FED (N = 9)): 27.57 [5.68] hour
- AUC(0-inf) [4, 10]: 24400 ng·h/mL
- AUC(0-inf) [4, 11]: 30000 ng·h/mL
- AUC(0-t) [4, 10]: 21900 ng·h/mL
- AUC(0-t) [4, 11]: 28700 ng·h/mL
- Cmax [4, 10]: 927 ng/mL
- Tmax [4, 10]: 1.11 h
- half-life [4, 10]: ~23 h
- half-life [4, 11]: ~28 h
- Vd/F [4, 10]: 13.9 L
- AUC(0-inf) [4, 12]: 60300 ng·h/mL
- AUC(0-t) [4, 12]: 57800 ng·h/mL
- Cmax [4, 12]: 1950 ng/mL
- Tmax [4, 12]: 1 h
- half-life [4, 12]: 25.8 h
- Vd/F [4, 12]: 12.5 L
- relationship between ETC‐206 plasma concentrations and changes from baseline of QTcF (healthy volunteers [5]; mixed effects regression model, flat slope (P = 0.7) of each dose and condition): no relationship
- proarrhythmic risks (healthy volunteers [5]; range of doses explored (10 and 20 mg single doses)): no evidence for ETC‐206 proarrhythmic risks
- activity on plasma cytokines, chemokines, and growth factors [6]: did not show any activity
- plasma protein binding in humans compared with dogs (Plasma protein binding): higher
- serious adverse events related to ETC‐206 (healthy volunteers [7]; general safety): did not show any serious adverse events
- AEs grade 1–2 CTCAE, % (healthy volunteers [7]; [13]): 9 (56)
- AEs grade 3 CTCAE: ↑CK, % (healthy volunteers [7]; [13]): 0
- Gastrointestinal disorders, % (healthy volunteers [7]; [13]): 4 (25)
- Investigations, % (healthy volunteers [7]; [13]): 5 (31)
- ↑ALT (%) (healthy volunteers [7]; [13]): 1 (6)
- ↑CK (%) (healthy volunteers [7]; [13]): 1 (6)
- ↓WBC (%) (healthy volunteers [7]; [13]): 3 (19)
- SAEs: seizure (%) (healthy volunteers [7]; 10 mg single dose FASTED (N = 16), not drug-related): 1 (6) ^a
- AEs grade 1–2 CTCAE, % (healthy volunteers [7]; 10 mg single dose FED (N = 9)): 9 (100)
- AEs grade 3 CTCAE: ↑CK, % (healthy volunteers [7]; 10 mg single dose FED (N = 9)): 0
- Gastrointestinal disorders, % (healthy volunteers [7]; 10 mg single dose FED (N = 9)): 2 (22)
- Investigations, % (healthy volunteers [7]; 10 mg single dose FED (N = 9)): 1 (11)
- SAEs: seizure (%) (healthy volunteers [7]; 10 mg single dose FED (N = 9)): 0
- ↑ALT (%) (healthy volunteers [7]; 10 mg single dose FED (N = 9)): 0
- ↑CK (%) (healthy volunteers [7]; 10 mg single dose FED (N = 9)): 0
- ↓WBC (%) (healthy volunteers [7]; 10 mg single dose FED (N = 9)): 1 (11)
- AEs grade 1–2 CTCAE, % (healthy volunteers [7]; [14]): 11 (79)
- Gastrointestinal disorders, % (healthy volunteers [7]; [14]): 3 (21)
- Investigations, % (healthy volunteers [7]; [14]): 1 (7)
- SAEs: seizure (%) (healthy volunteers [7]; [14]): 0
- ↑ALT (%) (healthy volunteers [7]; [14]): 0
- ↑CK (%) (healthy volunteers [7]; [14]): 0
- ↓WBC (%) (healthy volunteers [7]; [14]): 0
- AEs grade 3 CTCAE: ↑CK, % (healthy volunteers [7]; 20 mg single dose FASTED (N = 14), not drug-related): 1 (7) ^b
- Diarrhea, % (healthy volunteers [7]; [13]): 3 (19)
- Diarrhea, % (healthy volunteers [7]; 10 mg single dose FED (N = 9)): 2 (22) ^f
- Diarrhea, % (healthy volunteers [7]; [14]): 3 (21) ^g
- maximum administered dose (healthy volunteers [7]; single dose, fasted, no dose‐limiting toxicity, not the maximum tolerated dose): 20 mg
- tumor growth (mouse model of CML‐BC; in combination with tyrosine kinase inhibitors): inhibited tumor growth
- antitumor activity (mouse model of CML‐BC; single agent): no antitumor activity
- survival of stem cells [8]: impeded survival
- plasma levels of pro‐inflammatory cytokines, chemokines, and growth factors [9]: decrease plasma levels
